Test results taken from patent publication US20180168208A1 (priority 2014, published 2018).
Structures can show the parent of a compound that is named as a salt. Where two headings read alike, the source gives them in different places.

How the values were obtained:
cat T1R1/T1R3 receptor = target: T1, cat T1R1/T1R3 receptor (Felis catus, UniProt A0ABI7Z2I4); assay: cell-based
T1 sequence (A0ABI7Z2I4 171-420): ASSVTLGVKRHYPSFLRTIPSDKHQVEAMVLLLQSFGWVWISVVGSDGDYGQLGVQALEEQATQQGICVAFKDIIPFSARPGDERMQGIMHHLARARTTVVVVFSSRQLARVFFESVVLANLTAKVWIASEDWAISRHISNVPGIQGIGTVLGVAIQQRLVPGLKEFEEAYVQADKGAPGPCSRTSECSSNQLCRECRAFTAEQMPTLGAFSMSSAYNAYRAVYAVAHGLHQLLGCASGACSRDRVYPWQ
T1 sequence (Q49KI5 25-865 E206Q/N523D/F654L partner): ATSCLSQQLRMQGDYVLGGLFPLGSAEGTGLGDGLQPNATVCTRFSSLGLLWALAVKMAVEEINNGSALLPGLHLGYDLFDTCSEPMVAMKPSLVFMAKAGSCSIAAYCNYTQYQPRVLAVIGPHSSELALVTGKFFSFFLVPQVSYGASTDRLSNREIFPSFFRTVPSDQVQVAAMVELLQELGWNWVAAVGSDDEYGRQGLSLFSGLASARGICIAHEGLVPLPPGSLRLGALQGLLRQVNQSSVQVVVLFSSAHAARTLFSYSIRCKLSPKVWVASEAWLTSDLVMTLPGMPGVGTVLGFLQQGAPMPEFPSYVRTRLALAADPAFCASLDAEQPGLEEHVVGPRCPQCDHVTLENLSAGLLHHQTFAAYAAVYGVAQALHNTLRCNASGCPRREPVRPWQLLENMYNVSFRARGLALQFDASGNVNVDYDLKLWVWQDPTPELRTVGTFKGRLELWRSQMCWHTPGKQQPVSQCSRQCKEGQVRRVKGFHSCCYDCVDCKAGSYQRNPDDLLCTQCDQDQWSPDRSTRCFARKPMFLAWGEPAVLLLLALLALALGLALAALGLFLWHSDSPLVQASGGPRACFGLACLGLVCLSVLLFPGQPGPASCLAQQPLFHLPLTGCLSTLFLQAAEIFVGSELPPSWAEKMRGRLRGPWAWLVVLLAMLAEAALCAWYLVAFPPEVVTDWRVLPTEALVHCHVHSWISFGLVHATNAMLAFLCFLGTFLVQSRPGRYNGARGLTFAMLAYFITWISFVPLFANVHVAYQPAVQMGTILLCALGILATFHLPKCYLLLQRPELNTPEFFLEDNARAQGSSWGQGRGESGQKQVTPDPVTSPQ
Description: (§1) HEK293 cells that stably express T1R3 and inducibly express T1R1 were exposed to nucleotide derivatives alone or in combination with one or more amino acids and/or one or more nucleotides to activate the umami receptor. Activation of the T1R1/T1R3 receptor was detected by a change in intracellular calcium levels using a calcium sensitive fluorescent dye and/or a luminescent reporter system. Cells that express T1R3 but not T1R1 were used as a control. A FLIPR® Tetra or a FlexStation® 3 was used for data capture.

T1R1/T1R3 receptor = T1R1/T1R3 receptor (Felis catus, UniProt E3UMS2); assay: cell-based; format: cell-based
Description: as §1, with “transmembrane compounds” for “nucleotide derivatives”, “dye.” for “dye and/or a luminescent reporter system.”
In each experiment, serial dilutions of up to 10 mM of the transmembrane compound were added to the T1R1/T1R3-expressing cells.

[1] = maximum response in relation to the response with IMP, 20 mM alanine
[2] = maximum response of the receptor, 20 mM alanine
[3] = threshold amount that results in activation of T1R1/T1R3, 20 mM alanine

Row | Compound | Activity (cat T1R1/T1R3 receptor) | Threshold (cat T1R1/T1R3 receptor) [mM] | EC50 (cat T1R1/T1R3 receptor) [µM] | further results
1 | Nc1ncnc2c1ncn2[C@H]1C[C@H](OP(=O)(O)O)[C@@H](COP(=O)(O)O)O1 [2′-Deoxyadenosine-3′,5′-O-bisphosphate] | active | – | – | –
2 | Nc1ncnc2c1ncn2C1CC(O)C(COP(O)(O)=S)O1 (centres unmarked) [2′-Deoxyadenosine-5′-O-monophosphorothioate] | active | 0.015 | – | –
3 | O=P(O)(O)OC[C@H]1O[C@@H](n2cnc3c2ncn2ccnc32)[C@H](O)[C@@H]1O [1,N6-Ethenoadenosine-5′-O-monophosphate] | – | – | – | Activity (cat T1R1/T1R3 receptor; +Alanine (20 mM)): active
4 | NC(=O)c1ncn(C2OC(COP(=O)(O)O)C(O)C2O)c1N [5-Aminoimidazole-4-carboxamide-1-β-D-ribofuranosyl 5′-monophosphate] | active | 0.200 | > 1000 | –
5 | Nc1ncnc2c1ncn2[C@@H]1O[C@H](COP(O)(O)=S)[C@@H](O)[C@H]1O [Adenosine-5′-O-monophosphorothioate] | active | 0.003 | 11 | –
6 | O=C(Nc1ncnc2c1ncn2[C@@H]1O[C@H](COP(=O)(O)O)[C@@H](O)[C@H]1O)c1ccccc1 | active | 0.3 | – | Max resp. (ΔF/F) (cat T1R1/T1R3 receptor): 1.1 ΔF/F; EC50 (cat T1R1/T1R3 receptor; read-out: EC50- with Ala): > 1000 µM
7 | Nc1ncnc2c1ccn2[C@H]1O[C@@H](COP(=O)(O)O)[C@H](O)[C@@H]1O (stereo in doubt) [7-Deazaadenosine-5′-O-monophosphate] | active | 0.188 | – | –
8 | Nc1ncnc2c1ncn2[C@@H]1O[C@H](COP(=O)(O)O)[C@@H](O)[C@H]1O [adenosine monophosphate (AMP), adenosine monophosphate, reference compound] | – | – | 11 | –
9 | Nc1ncnc2c1ncn2C1OC(COP(=O)(O)O)C(OP(=O)(O)O)C1O (centres unmarked) [Adenosine 3′,5′-diphosphate sodium salt, adenosine 3′, 5′ diphosphate sodium salt] | active | 0.00025 | – | –
10 | O=c1ccn([C@H]2C[C@H](O)[C@@H](COP(O)(O)=S)O2)c(=O)[nH]1 [2′-Deoxyuridine-5′-O-monophosphorothioate] | – | – | > 30000 | –
11 | Nc1nc2c(ncn2[C@H]2O[C@@H](COP(=O)(O)O)[C@H](O)[C@@H]2O)c(=O)[nH]1 (stereo in doubt) [guanosine monophosphate, reference compound] | active | 0.008 | 30 | –
12 | Nc1nc(Cl)c2ncn(C3OC(COP(=O)(O)O)C(O)C3O)c2n1 (centres unmarked) [2-amino-6-chloropurineriboside-5′-O-monophosphate] | active | 0.00013 | 0.5 | –
13 | O=P(O)(O)OCC1OC(n2cnc3c(Cl)ncnc32)C(O)C1O (centres unmarked) [6-Chloropurineriboside-5′-O-monophosphate] | active | – | – | Max resp. (ΔF/F) (cat T1R1/T1R3 receptor): 1.5325 ΔF/F; Max. resp. % of IMP (cat T1R1/T1R3 receptor): 123.3 % of IMP
14 | O=P(O)(O)OC[C@H]1O[C@@H](n2cnc3cncnc32)[C@H](O)[C@@H]1O [Purine riboside-5′-O-monophosphate, reference compound] | active | 0.005 | – | –
15 | Nc1ncnc2c1ncn2C1OC(COP(=O)(O)OS(=O)(=O)O)C(O)C1O (centres unmarked) [Adenosine 5′-phosphosulfate sodium salt, Adenosine 5′-phosphosulfate] | – | 0.008 | – | –
16 | Nc1nc2c(ncn2[C@@H]2O[C@H](COP(=O)(O)OP(=O)(O)OP(=O)(O)O)[C@@H](O)[C@H]2O)c(=O)[nH]1 [Guanosine 5′-triphosphate] | active | 0.175 | 700 | Max resp. (ΔF/F) (cat T1R1/T1R3 receptor): 1.8075 ΔF/F; Max. resp. % of IMP (cat T1R1/T1R3 receptor): 145.5 % of IMP
17 | O=c1ccn([C@H]2O[C@@H](COP(=O)(O)O)[C@H](O)[C@@H]2O)c(=O)[nH]1 (stereo in doubt) [uridine monophosphate] | active | 3.000 | > 30000 | –
18 | Nc1nc2c(ncn2[C@@H]2O[C@H](COP(=O)(O)OP(=O)(O)O)[C@@H](O)[C@H]2O)c(=S)[nH]1 [6-Thioguanosine-5′-O-disphosphate] | – | 0.03 | – | –
19 | O=c1ccn([C@H]2C[C@H](O)[C@@H](COP(O)(O)=S)O2)c(=O)[nH]1 [2′-Deoxyuridine-5′-O-monophosphorothioate (5′-dUMPS)] | – | 5.000 | – | Max resp. (ΔF/F) (cat T1R1/T1R3 receptor): 0.4200 ΔF/F; Max. resp. % of IMP (cat T1R1/T1R3 receptor): 43.4 % of IMP
20 | CNc1ncnc2c1ncn2[C@@H]1O[C@H](COP(=O)(O)O)[C@@H](O)[C@H]1O [N6-Methyladenosine 5′-monophosphate] | – | 0.020 | – | Activity (cat T1R1/T1R3 receptor; +Alanine (20 mM)): active
21 | Nc1nc2c(ncn2[C@H]2C[C@H](O)[C@@H](COP(O)(O)=S)O2)c(=O)[nH]1 [2′-Deoxyguanosine-5′-O-monophosphorothioate] | active | 0.005 | – | function as activators of T1R1/T1R3 (in words) (cat T1R1/T1R3 receptor; in the presence of alanine): activators of T1R1/T1R3
22 | 2′-,3′-O-(N′-Methylanthraniloyl) guanosine-5′-O-monophosphate | – | – | – | Max. resp. % of IMP (cat T1R1/T1R3 receptor; [1]): 74.3 % of IMP; Max resp. (ΔF/F) (cat T1R1/T1R3 receptor; [2]): 0.7190 ΔF/F; Threshold (cat T1R1/T1R3 receptor; [3]): 0.0014 mM
23 | Nc1ncnc2c1ncn2[C@H]1C[C@H](O)[C@@H](COP(=O)(O)O)O1 [2′-Deoxyadenosine 5′-monophosphate] | active | 0.035 | 140 | –
24 | O=c1ccn([C@H]2C[C@H](O)[C@@H](COP(O)(O)=S)O2)c(=O)[nH]1 [2′-Deoxyuridine-5′-O-monophosphosphorothioate (5′-dUMPS)] | active | 5.000 | – | Max resp. (ΔF/F) (cat T1R1/T1R3 receptor): 0.4200 ΔF/F; Max. resp. % of IMP (cat T1R1/T1R3 receptor): 43.4 % of IMP
25 | O=c1ccn([C@@H]2O[C@H](COP(=O)(O)O)[C@@H](O)[C@H]2O)c(=O)[nH]1 [UMP, uridine monophosphate, reference compound] | – | – | > 30000 | –
26 | Nc1nc2c(ncn2C2OC(COP(=O)(O)N3CCOCC3)C(O)C2O)c(=O)[nH]1 (centres unmarked) [Guanosine 5′-monophosphomorpholidate 4-morpholine-N,N′-dicyclohexylcarboxamidine salt] | – | – | – | Activity (cat T1R1/T1R3 receptor; +Alanine (20 mM)): active; Max. resp. % of IMP (cat T1R1/T1R3 receptor; [1]): 52.9 % of IMP; Max resp. (ΔF/F) (cat T1R1/T1R3 receptor; [2]): 0.5121 ΔF/F; Threshold (cat T1R1/T1R3 receptor; [3]): 0.325 mM
27 | COc1ccc(/C=C/C(=O)NC2CCCCC2C)cc1 (centres unmarked) [(E)-3-(4-methoxyphenyl)-N-(2-methylcyclohexyl) acrylamide] | – | – | – | Thres +Alanine (T1R1/T1R3 receptor; + Alanine (20 nM), Table 17): 3 mM; Max resp % of IMP + Alanine (T1R1/T1R3 receptor; + Alanine, Table 17): 63.2 % of IMP; Max resp ΔF/F +Alanine (T1R1/T1R3 receptor; + Alanine, Table 17): 0.785; EC50 (T1R1/T1R3 receptor; + Alanine, Table 17, read-out: EC50 + Alanine): > 10000 µM; Max resp % of ALa + IMP (T1R1/T1R3 receptor; + IMP (0.2 mM), Table 17): 144.0 % of ALa; Thres + IMP (T1R1/T1R3 receptor; + IMP (0.2 mM), Table 17): 0.3 mM; Max resp ΔF/F +Alanine (T1R1/T1R3 receptor; +Alanine (20 mM), Table 18): 0.785; Thres +Alanine (T1R1/T1R3 receptor; +Alanine (20 mM), Table 18): 3 mM; EC50 (T1R1/T1R3 receptor; +Alanine (20 mM), Table 18, read-out: EC50 +Alanine): > 10000 µM; Max resp % of Ala +IMP (T1R1/T1R3 receptor; +IMP (0.2 mM), Table 18): 144.0 % of Ala; Max resp ΔF/F +IMP (T1R1/T1R3 receptor; +IMP (0.2 mM), Table 18): 1.7725; EC50 (T1R1/T1R3 receptor; EC50 + IMP, + IMP (0.2 mM), Table 17): > 3000 µM; EC50 (T1R1/T1R3 receptor; EC50 +Alanine + IMP, +Alanine (20 mM) + IMP (0.2 mM), Table 18): > 3000 µM; EC50 (T1R1/T1R3 receptor; EC50 +IMP, +IMP (0.2 mM), Table 18): > 3000 µM; EC50 (T1R1/T1R3 receptor; compound alone in buffer, Table 17, read-out: EC50 + buffer (alone)): > 10000 µM; EC50 (T1R1/T1R3 receptor; compound alone in buffer, Table 18, read-out: EC50 +buffer (alone)): > 10000 µM
